Test results published in ChEMBL document CHEMBL1152007, “The synthesis and CCK receptor affinities of selected carboyxlic acid mimics of CI-988 - a potent and selective CCK-B antagonist” (Bioorg Med Chem Lett, 1992).
Blank lines part the entries; values can stand above or below the compound they belong to.

Legend:
[1] = Dissociation constant, pKa was determined; format: physicochemical
[2] = molecular target: T1, Gastrin/cholecystokinin type B receptor (Mus musculus, UniProt P56481); test: The concentration (nM) producing half-maximal inhibition of specific binding of [1251] Bolton Hunter CCK-8 to CCK receptors in the mouse cerebral cortex (CCK-B);value ranges from 62 to 98; format: tissue-based
T1 sequence (P56481 whole entry): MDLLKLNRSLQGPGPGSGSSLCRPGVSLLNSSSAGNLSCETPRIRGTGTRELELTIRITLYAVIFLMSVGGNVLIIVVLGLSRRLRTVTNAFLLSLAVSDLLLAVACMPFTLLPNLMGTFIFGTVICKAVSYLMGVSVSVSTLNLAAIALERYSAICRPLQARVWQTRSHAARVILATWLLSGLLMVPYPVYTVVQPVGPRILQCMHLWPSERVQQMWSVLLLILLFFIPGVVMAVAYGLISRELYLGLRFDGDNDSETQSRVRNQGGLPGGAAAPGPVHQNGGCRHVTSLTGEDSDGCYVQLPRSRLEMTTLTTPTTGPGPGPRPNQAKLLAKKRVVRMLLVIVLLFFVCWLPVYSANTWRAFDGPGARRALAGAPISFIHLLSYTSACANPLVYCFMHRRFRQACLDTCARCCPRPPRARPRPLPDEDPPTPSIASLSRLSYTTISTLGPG

[3] = molecular target: T2, Cholecystokinin receptor type A (Rattus norvegicus, UniProt P30551); test: The concentration (nM) producing half-maximal inhibition of specific binding of [1251] Bolton Hunter CCK-8 to CCK receptors in the rat pancreas (CCK-A);value ranges from 620 to 770
T2 sequence (P30551 whole entry): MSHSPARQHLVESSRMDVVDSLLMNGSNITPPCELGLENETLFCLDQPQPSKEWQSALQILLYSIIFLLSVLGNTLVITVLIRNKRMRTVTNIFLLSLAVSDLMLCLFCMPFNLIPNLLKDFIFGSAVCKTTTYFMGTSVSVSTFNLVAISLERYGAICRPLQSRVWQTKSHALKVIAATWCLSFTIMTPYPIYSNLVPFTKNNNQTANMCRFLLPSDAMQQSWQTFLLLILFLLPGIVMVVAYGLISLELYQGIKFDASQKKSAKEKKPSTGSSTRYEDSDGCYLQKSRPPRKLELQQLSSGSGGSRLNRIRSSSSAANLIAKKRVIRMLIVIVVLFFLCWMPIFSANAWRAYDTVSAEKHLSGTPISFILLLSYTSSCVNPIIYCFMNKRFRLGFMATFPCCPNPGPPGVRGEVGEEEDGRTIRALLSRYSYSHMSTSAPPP

[4] = Dissociation constant, pKa was determined; experiment 1; format: physicochemical
[5] = molecular target: T2, Cholecystokinin receptor type A; test: The concentration (nM) producing half-maximal inhibition of specific binding of [1251] Bolton Hunter CCK-8 to CCK receptors in the rat pancreas (CCK-A);value ranges from 2300 to 3500
[6] = Dissociation constant, pKa was determined; experiment 2; format: physicochemical
[7] = molecular target: T1, Gastrin/cholecystokinin type B receptor; test: The concentration (nM) producing half-maximal inhibition of specific binding of [1251] Bolton Hunter CCK-8 to CCK receptors in the mouse cerebral cortex (CCK-B);value ranges from 22 to 24; format: tissue-based
[8] = molecular target: T2, Cholecystokinin receptor type A; test: The concentration (nM) producing half-maximal inhibition of specific binding of [1251] Bolton Hunter CCK-8 to CCK receptors in the rat pancreas (CCK-A);value ranges from 1100 to 1500
[9] = molecular target: T1, Gastrin/cholecystokinin type B receptor; test: The concentration (nM) producing half-maximal inhibition of specific binding of [1251] Bolton Hunter CCK-8 to CCK receptors in the mouse cerebral cortex (CCK-B);value ranges from 5.3 to 7.7; format: tissue-based
[10] = molecular target: T1, Gastrin/cholecystokinin type B receptor; test: The concentration (nM) producing half-maximal inhibition of specific binding of [1251] Bolton Hunter CCK-8 to CCK receptors in the mouse cerebral cortex (CCK-B);value ranges from 8.6 to 32; format: tissue-based
[11] = molecular target: T2, Cholecystokinin receptor type A; test: The concentration (nM) producing half-maximal inhibition of specific binding of [1251] Bolton Hunter CCK-8 to CCK receptors in the rat pancreas (CCK-A);value ranges from 900 to 1900
[12] = molecular target: T1, Gastrin/cholecystokinin type B receptor; test: The concentration (nM) producing half-maximal inhibition of specific binding of [1251] Bolton Hunter CCK-8 to CCK receptors in the mouse cerebral cortex (CCK-B);value ranges from 63 to 170; format: tissue-based
[13] = molecular target: T2, Cholecystokinin receptor type A; test: The concentration (nM) producing half-maximal inhibition of specific binding of [1251] Bolton Hunter CCK-8 to CCK receptors in the rat pancreas (CCK-A); value ranges from 680 to 970
[14] = molecular target: T1, Gastrin/cholecystokinin type B receptor; test: The concentration (nM) producing half-maximal inhibition of specific binding of [1251] Bolton Hunter CCK-8 to CCK receptors in the mouse cerebral cortex (CCK-B);value ranges from 3.0 to 8.1; format: tissue-based
[15] = molecular target: T2, Cholecystokinin receptor type A; test: The concentration (nM) producing half-maximal inhibition of specific binding of [1251] Bolton Hunter CCK-8 to CCK receptors in the rat pancreas (CCK-A); value ranges from 1000 to 1100

SMILES: CC(Cc1c[nH]c2ccccc12)(NC(=O)OC1C2CC3CC(C2)CC1C3)C(=O)NC[C@H](NC(=O)CCNS(=O)(=O)C(F)(F)F)c1ccccc1 (single isomer, unassigned)
pKa [1]: 7.9
IC50 [2]: 77 nM
IC50 [3]: 680 nM

SMILES: C[C@@](Cc1c[nH]c2ccccc12)(NC(=O)OC1C2CC3CC(C2)CC1C3)C(=O)NC[C@H](NC(=O)CCC(=O)O)c1ccccc1 (stereo not given in full)
pKa [1]: 5.6

SMILES: CC(Cc1c[nH]c2ccccc12)(NC(=O)OC1C2CC3CC(C2)CC1C3)C(=O)NC[C@H](NC(=O)CCP(=O)(O)O)c1ccccc1 (single isomer, unassigned)
pKa [4]: 3.4
IC50 [5]: 2700 nM
pKa [6]: 7.8
IC50 [7]: 23 nM

SMILES: CC(Cc1c[nH]c2ccccc12)(NC(=O)OC1C2CC3CC(C2)CC1C3)C(=O)NC[C@H](NC(=O)CCC(=O)NO)c1ccccc1 (single isomer, unassigned)
pKa [1]: > 9.5
IC50 [10]: 14 nM
IC50 [11]: 1800 nM

Next, values leading:

pKa [1]: 5.2
IC50 [8]: 1200 nM
IC50 [9]: 6.3 nM
SMILES: CC(Cc1c[nH]c2ccccc12)(NC(=O)OC1C2CC3CC(C2)CC1C3)C(=O)NC[C@H](NC(=O)CCC(=O)Nc1nn[nH]n1)c1ccccc1 (single isomer, unassigned)

pKa [1]: > 9.5
IC50 [12]: 89 nM
IC50 [13]: 800 nM
SMILES: CC(Cc1c[nH]c2ccccc12)(NC(=O)OC1C2CC3CC(C2)CC1C3)C(=O)NC[C@H](NC(=O)CCNC(=O)C(F)(F)F)c1ccccc1 (single isomer, unassigned)

pKa [1]: 5.4
IC50 [14]: 5.6 nM
IC50 [15]: 1070 nM
SMILES: CC(Cc1c[nH]c2ccccc12)(NC(=O)OC1C2CC3CC(C2)CC1C3)C(=O)NC[C@H](NC(=O)CCc1nnn[nH]1)c1ccccc1 (single isomer, unassigned)
